Results: patent publication US9676782B2, “Substituted pyrazolo[1,5-a]pyrazines as negative allosteric modulators of metabotropic glutamate receptor 3” (Vanderbilt University, priority 2014, dated 2017)
Read-outs that look alike come from different tables or passages of the source. Blank lines part the entries; values can stand above or below the molecule they belong to.

Assays:
rat mGlu3 = rat mGlu3 (Rattus norvegicus (Rat), UniProt P31422); test: mGlu3 Ca2+ flux assay; format: cell-based; conditions: for remaining activity at 30 µM: amplitude of response at 30 μM test compound as % of maximal response to glutamate, read-out: rat mGlu3 Glu max (%); for mGlu3 Glu max: response at 30 μM compound as percentage of maximal glutamate response
Summary of the method: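 This calcium mobilization assay used rat mGlu3 cells cultured overnight (37° C., 5% CO2) and read on the FDSS7000 after a 10 minute room-temperature incubation in 20 μL assay buffer. Each of 360 readings per well was divided by its initial value (F/F0). Potency came from fitting normalized responses against log concentration with an unconstrained 4 parameter logistic equation, weighting triplicate points equally.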

rat mGlu5 = rat mGlu5 (Rattus norvegicus (Rat), UniProt P31424); test: mGlu5 Ca2+ flux assay; format: cell-based; conditions: for Fold selectivity (mGlu3 vs. mGlu5): ratio of rat mGlu5 EC50 or IC50 to rat mGlu3 IC50; for mGlu5 Glu max: response at 30 μM compound as percentage of maximal glutamate response
Summary of the method: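 Ca2+ flux read kinetically (FDSS7000) after overnight culture at 37° C/5% CO2 and a 5 min room-temperature buffer step following dye removal. Signals expressed per well as F/F0 and normalized to peak glutamate response; EC50 fitted by free 4-parameter logistic, three replicates per concentration equally weighted.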

mGlu2 = test: mGlu selectivity assay: effect of a single concentration on the glutamate concentration-response curve; format: cell-based; conditions: tested at 10 μM
Source text: (§1) Selectivity versus other mGlus can also be assessed by evaluating the effect of a single concentration of compound on the glutamate concentration-response curve (CRC) in cell lines expressing the mGlu of interest.

mGlu4 = test: as above; format: cell-based; conditions: tested at 10 μM
Source text: as §1

mGlu7 = test: as above; format: cell-based; conditions: tested at 10 μM
Source text: as §1

mGlu1 = test: as above; format: cell-based; conditions: tested at 10 μM
Source text: as §1

mGlu8 = test: as above; format: cell-based; conditions: tested at 10 μM
Source text: as §1

mGlu6 = mGlu6 (Homo sapiens (Human), UniProt O15303); test: as above; format: cell-based; conditions: tested at 10 μM
Source text: as §1

Helpless (H) mice = conditions: genetic model of depression; cited from earlier work
[1] = system: Aβ-induced neurodegeneration; conditions: cited from earlier work
glioma stem cells (GSC) = conditions: in vitro; cited from earlier work
[2] = system: central mGlu2 and mGlu3 receptors; conditions: in vivo; cited from earlier work
C57Bl6/J mice = conditions: forced swim test; cited from earlier work
[3] = system: tumors injected into nude mice; conditions: compared with controls; cited from earlier work
cultured astrocytes = conditions: cited from earlier work
schizophrenic patients = conditions: compared to placebo, P<0.001 at week 4; cited from earlier work
[4] = read-out: rat mGlu5 EC50 or IC50
[5] = NAM potency, decrease of glutamate EC80 response, >30,000 = no measurable activity, >10,000 = no plateau, read-out: rat mGlu3 IC50
[6] = Table 2 compounds with X = NH, read-out: mGlu3 IC50
[7] = Table 2 compounds with X = NH, read-out: mGlu5 EC50
[8] = Table 2 compounds with X = NMe, read-out: mGlu3 IC50
[9] = Table 2 compounds with X = NMe, read-out: mGlu5 EC50
[10] = Table 2 compounds with X = O, read-out: mGlu3 IC50
[11] = Table 2 compounds with X = O, read-out: mGlu5 EC50

Chain of rat mGlu5 (P31424 21-1203): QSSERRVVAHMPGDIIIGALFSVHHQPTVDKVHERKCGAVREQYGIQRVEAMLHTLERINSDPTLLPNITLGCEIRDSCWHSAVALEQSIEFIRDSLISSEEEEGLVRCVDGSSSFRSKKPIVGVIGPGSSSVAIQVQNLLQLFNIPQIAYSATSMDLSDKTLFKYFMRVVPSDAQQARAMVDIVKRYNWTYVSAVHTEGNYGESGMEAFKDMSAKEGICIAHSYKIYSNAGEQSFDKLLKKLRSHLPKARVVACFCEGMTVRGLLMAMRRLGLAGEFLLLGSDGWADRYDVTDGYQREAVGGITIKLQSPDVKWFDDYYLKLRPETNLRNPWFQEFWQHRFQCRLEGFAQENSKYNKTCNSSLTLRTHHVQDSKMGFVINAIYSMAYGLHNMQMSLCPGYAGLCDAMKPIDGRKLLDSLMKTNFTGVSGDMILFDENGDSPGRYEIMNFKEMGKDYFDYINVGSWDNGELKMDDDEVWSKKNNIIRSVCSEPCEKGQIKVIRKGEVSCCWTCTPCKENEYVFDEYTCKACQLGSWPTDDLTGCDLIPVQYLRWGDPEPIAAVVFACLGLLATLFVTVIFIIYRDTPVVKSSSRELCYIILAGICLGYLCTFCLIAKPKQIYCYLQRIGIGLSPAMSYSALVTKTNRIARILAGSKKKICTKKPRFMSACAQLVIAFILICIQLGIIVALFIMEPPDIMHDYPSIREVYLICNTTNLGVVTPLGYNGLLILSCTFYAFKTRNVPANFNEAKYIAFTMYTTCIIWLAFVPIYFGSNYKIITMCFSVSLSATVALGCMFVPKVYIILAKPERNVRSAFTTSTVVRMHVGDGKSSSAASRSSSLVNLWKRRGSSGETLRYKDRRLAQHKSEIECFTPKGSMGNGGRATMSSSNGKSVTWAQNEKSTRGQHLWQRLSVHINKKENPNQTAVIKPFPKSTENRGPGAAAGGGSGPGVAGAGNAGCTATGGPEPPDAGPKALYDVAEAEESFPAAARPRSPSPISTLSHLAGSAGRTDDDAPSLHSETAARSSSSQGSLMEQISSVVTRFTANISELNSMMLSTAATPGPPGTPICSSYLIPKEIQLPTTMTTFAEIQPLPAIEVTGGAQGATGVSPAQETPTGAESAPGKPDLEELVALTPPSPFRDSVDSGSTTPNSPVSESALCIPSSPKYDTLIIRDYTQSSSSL
Chain of rat mGlu3 (P31422 23-879): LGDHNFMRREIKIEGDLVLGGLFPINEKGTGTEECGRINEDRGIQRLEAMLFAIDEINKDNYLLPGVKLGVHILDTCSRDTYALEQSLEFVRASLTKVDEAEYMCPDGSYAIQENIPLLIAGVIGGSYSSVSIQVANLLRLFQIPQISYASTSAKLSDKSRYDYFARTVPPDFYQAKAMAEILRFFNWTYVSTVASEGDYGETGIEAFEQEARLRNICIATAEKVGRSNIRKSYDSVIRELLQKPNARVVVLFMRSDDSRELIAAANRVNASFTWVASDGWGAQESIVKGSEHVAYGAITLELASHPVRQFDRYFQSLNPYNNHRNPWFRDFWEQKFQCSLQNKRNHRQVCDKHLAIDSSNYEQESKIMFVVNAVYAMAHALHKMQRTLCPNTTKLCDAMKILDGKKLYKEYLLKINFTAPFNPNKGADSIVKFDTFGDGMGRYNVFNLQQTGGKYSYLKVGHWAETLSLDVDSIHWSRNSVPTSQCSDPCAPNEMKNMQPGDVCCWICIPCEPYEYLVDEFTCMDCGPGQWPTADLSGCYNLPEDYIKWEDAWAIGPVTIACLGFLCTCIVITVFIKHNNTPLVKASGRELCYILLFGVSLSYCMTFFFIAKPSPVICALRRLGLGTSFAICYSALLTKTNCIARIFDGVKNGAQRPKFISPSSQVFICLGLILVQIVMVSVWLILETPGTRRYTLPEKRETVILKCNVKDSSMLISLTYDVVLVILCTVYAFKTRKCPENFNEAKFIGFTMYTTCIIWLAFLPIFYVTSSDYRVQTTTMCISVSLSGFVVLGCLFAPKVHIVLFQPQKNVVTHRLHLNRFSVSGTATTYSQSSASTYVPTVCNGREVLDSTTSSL
Chain of mGlu6 (O15303 25-877): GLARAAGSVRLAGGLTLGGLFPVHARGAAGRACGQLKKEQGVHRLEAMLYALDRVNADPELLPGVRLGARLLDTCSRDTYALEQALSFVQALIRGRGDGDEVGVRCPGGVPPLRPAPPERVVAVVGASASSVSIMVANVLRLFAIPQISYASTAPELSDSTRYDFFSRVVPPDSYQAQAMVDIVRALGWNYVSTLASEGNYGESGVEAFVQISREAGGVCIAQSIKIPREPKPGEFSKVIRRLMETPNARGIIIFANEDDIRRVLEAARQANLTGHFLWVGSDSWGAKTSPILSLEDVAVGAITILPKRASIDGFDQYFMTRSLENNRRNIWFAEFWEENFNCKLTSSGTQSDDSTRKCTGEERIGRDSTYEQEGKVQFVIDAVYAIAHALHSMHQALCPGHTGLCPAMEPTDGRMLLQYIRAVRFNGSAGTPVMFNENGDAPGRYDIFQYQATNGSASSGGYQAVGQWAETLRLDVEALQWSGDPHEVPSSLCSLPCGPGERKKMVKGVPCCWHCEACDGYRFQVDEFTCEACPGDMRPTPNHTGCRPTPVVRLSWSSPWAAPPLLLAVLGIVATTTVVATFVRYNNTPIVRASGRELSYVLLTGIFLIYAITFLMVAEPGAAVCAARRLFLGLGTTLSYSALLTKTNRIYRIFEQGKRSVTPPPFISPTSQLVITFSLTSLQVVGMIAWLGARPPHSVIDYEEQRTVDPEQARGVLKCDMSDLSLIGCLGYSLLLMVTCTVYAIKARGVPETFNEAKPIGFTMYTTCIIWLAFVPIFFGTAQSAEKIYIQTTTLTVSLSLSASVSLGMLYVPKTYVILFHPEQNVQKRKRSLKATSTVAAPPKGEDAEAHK

remaining activity at 30 µM (rat mGlu3): 1.01%
IC50 (rat mGlu3; read-out: rat mGlu3 IC50): 0.89 µM
Fold selectivity (mGlu3 vs. mGlu5) (rat mGlu5): >33
EC50 (rat mGlu5; [4]): > 30 µM
activity against mGlu6 (mGlu6): inactive
SMILES: N#CCc1ccc(NCc2cc3n(n2)CCN(c2ccc(F)cc2)C3=O)cc1 [Compound 26, 2-(4-(((5-(4-fluorophenyl)-4-oxo-4,5,6,7-tetrahydropyrazolo[1,5-a]pyrazin-2-yl)methyl)amino)phenyl)acetonitrile]
activity against mGlu2 (mGlu2): inactive
activity against mGlu4 (mGlu4): inactive
activity against mGlu7 (mGlu7): inactive
activity against mGlu1 (mGlu1): inactive
activity against mGlu8 (mGlu8): inactive

SMILES: COc1ccc(N(C)Cc2cc3n(n2)CCN(c2ccc(F)cc2)C3=O)cc1 [Compound 92, 5-(4-fluorophenyl)-2-(((4-methoxyphenyl)(methyl)amino)methyl)-6,7-dihydropyrazolo[1,5-a]pyrazin-4(5H)-one]
IC50 (rat mGlu3; [5]): 0.986 µM
remaining activity at 30 µM (rat mGlu3): 1.39%
Fold selectivity (mGlu3 vs. mGlu5) (rat mGlu5): >30
EC50 (rat mGlu5; [4]): > 30 µM
activity against mGlu2 (mGlu2): inactive
activity against mGlu4 (mGlu4): inactive
activity against mGlu7 (mGlu7): inactive
activity against mGlu1 (mGlu1): inactive
activity against mGlu8 (mGlu8): inactive
activity against mGlu6 (mGlu6): inactive

SMILES: COc1ccc(NC(C)c2cc3n(n2)CCN(c2ccc(F)cc2)C3=O)cc1 (centres unmarked) [Compound 169, 5-(4-Fluorophenyl)-2-(1-((4-methoxyphenyl)amino)ethyl)-6,7-dihydropyrazolo[1,5-a]pyrazin-4(5H)-one]
IC50 (rat mGlu3; [5]): 7.74 µM
remaining activity at 30 µM (rat mGlu3): -6.64%
Fold selectivity (mGlu3 vs. mGlu5) (rat mGlu5): >3.8
EC50 (rat mGlu5; [4]): > 30 µM

SMILES: CC(Nc1ccccc1)c1cc2n(n1)CCN(c1ccc(F)cc1)C2=O (centres unmarked) [Compound 170, 5-(4-fluorophenyl)-2-(1-(phenylamino)ethyl)-6,7-dihydropyrazolo[1,5-a]pyrazin-4(5H)-one]
IC50 (rat mGlu3; [5]): 2.85 µM
remaining activity at 30 µM (rat mGlu3): 0.67%
Fold selectivity (mGlu3 vs. mGlu5) (rat mGlu5): >10
EC50 (rat mGlu5; [4]): > 30 µM

SMILES: CC(Nc1ccc(F)cc1)c1cc2n(n1)CCN(c1ccc(F)cc1)C2=O (centres unmarked) [Compound 171, 5-(4-fluorophenyl)-2-(1-((4-fluorophenyl)amino)ethyl)-6,7-dihydropyrazolo[1,5-a]pyrazin-4(5H)-one]
IC50 (rat mGlu3; [5]): 2.15 µM
remaining activity at 30 µM (rat mGlu3): 0.39%
Fold selectivity (mGlu3 vs. mGlu5) (rat mGlu5): >13
EC50 (rat mGlu5; [4]): > 30 µM

SMILES: CC(Nc1ccc(Cl)cc1)c1cc2n(n1)CCN(c1ccc(F)cc1)C2=O (centres unmarked) [Compound 172, 2-(1-((4-chlorophenyl)amino)ethyl)-5-(4-fluorophenyl)-6,7-dihydropyrazolo[1,5-a]pyrazin-4(5H)-one]
IC50 (rat mGlu3; [5]): 1.55 µM
remaining activity at 30 µM (rat mGlu3): 1.29%
Fold selectivity (mGlu3 vs. mGlu5) (rat mGlu5): >19
EC50 (rat mGlu5; [4]): > 30 µM

SMILES: N[C@](CC1c2ccccc2Oc2ccccc21)(C(=O)O)[C@H]1C[C@@H]1C(=O)O [LY341495]
activity in the tail suspension test (Helpless (H) mice): active
effect on Aβ-induced neurodegeneration [1]: prevented
proliferation rates (glioma stem cells (GSC)): decreased in a time-dependent manner
proportion of cells in S phase (glioma stem cells (GSC)): decreased in a time-dependent manner
reversal of hypolocomotor effect of LY379268 [2]: achieved the same result
immobility time (C57Bl6/J mice): dose-dependently reduced immobility time
growth rate of tumors [3]: reduced
volume of tumors [3]: reduced

SMILES: N[C@@]1(C(=O)O)CO[C@H]2[C@H](C(=O)O)[C@H]21 [LY379268]
effect on Aβ-induced neurodegeneration [1]: neuroprotective activity
sAPPα release (cultured astrocytes): incremented sAPPα release

SMILES: N[C@@]1(C(=O)O)CS(=O)(=O)[C@H]2[C@H](C(=O)O)[C@H]21 [LY404039]
positive and negative symptoms of schizophrenia (schizophrenic patients): statistically significant improvements in both positive and negative symptoms

SMILES: CCS(=O)(=O)N(Cc1cccnc1)c1cccc(-c2ccc(C#N)cc2)c1 [LY566332]
effect on Aβ-induced neurodegeneration [1]: amplified Aβ-induced neurodegeneration

SMILES: Cc1cc(-c2cccc(C3=Nc4cc(C)c(C(F)(F)F)cc4NC(=O)C3)c2)cc(C)n1 [RO4491533]
activity in the tail suspension test (Helpless (H) mice): active
reversal of hypolocomotor effect of LY379268 [2]: reversed the hypolocomotor effect
immobility time (C57Bl6/J mice): dose-dependently reduced immobility time

SMILES: O=C1c2cc(CNc3ccccc3)nn2CCN1c1ccc(F)cc1 [drawing 29 X = NH]
IC50 (rat mGlu3; [6]): 1.32 µM
mGlu3 Glu max (rat mGlu3; Table 2 compounds with X = NH): 2%
EC50 (rat mGlu5; [7]): 2.04 µM
mGlu5 Glu max (rat mGlu5; Table 2 compounds with X = NH): 98%

SMILES: CN(Cc1cc2n(n1)CCN(c1ccc(F)cc1)C2=O)c1ccccc1 [drawing 29 X = NMe]
IC50 (rat mGlu3; [8]): 1.22 µM
mGlu3 Glu max (rat mGlu3; Table 2 compounds with X = NMe): 1%
EC50 (rat mGlu5; [9]): > 30 µM

IC50 (rat mGlu3; [10]): 0.278 µM
mGlu3 Glu max (rat mGlu3; Table 2 compounds with X = O): 2%
EC50 (rat mGlu5; [11]): 0.044 µM
mGlu5 Glu max (rat mGlu5; Table 2 compounds with X = O): 79%
SMILES: O=C1c2cc(COc3ccccc3)nn2CCN1c1ccc(F)cc1 [drawing 29 X = O, reference compound]

SMILES: O=C1c2cc(CNc3ccccc3F)nn2CCN1c1ccc(F)cc1 [drawing 30 X = NH]
IC50 (rat mGlu3; [6]): 0.944 µM
mGlu3 Glu max (rat mGlu3; Table 2 compounds with X = NH): 2%
EC50 (rat mGlu5; [7]): 2.47 µM
mGlu5 Glu max (rat mGlu5; Table 2 compounds with X = NH): 96%

SMILES: CN(Cc1cc2n(n1)CCN(c1ccc(F)cc1)C2=O)c1ccccc1F [drawing 30 X = NMe]
IC50 (rat mGlu3; [8]): 0.876 µM
mGlu3 Glu max (rat mGlu3; Table 2 compounds with X = NMe): −1%
EC50 (rat mGlu5; [9]): > 30 µM

IC50 (rat mGlu3; [10]): 0.264 µM
mGlu3 Glu max (rat mGlu3; Table 2 compounds with X = O): 2%
EC50 (rat mGlu5; [11]): 0.147 µM
mGlu5 Glu max (rat mGlu5; Table 2 compounds with X = O): 61%
SMILES: O=C1c2cc(COc3ccccc3F)nn2CCN1c1ccc(F)cc1 [drawing 30 X = O, reference compound]

SMILES: O=C1c2cc(CNc3cccc(F)c3)nn2CCN1c1ccc(F)cc1 [drawing 31 X = NH]
IC50 (rat mGlu3; [6]): 1.04 µM
mGlu3 Glu max (rat mGlu3; Table 2 compounds with X = NH): 1%
EC50 (rat mGlu5; [7]): 2.21 µM
mGlu5 Glu max (rat mGlu5; Table 2 compounds with X = NH): 99%

SMILES: CN(Cc1cc2n(n1)CCN(c1ccc(F)cc1)C2=O)c1cccc(F)c1 [drawing 31 X = NMe]
IC50 (rat mGlu3; [8]): 0.594 µM
mGlu3 Glu max (rat mGlu3; Table 2 compounds with X = NMe): 2%
EC50 (rat mGlu5; [9]): 7.76 µM
mGlu5 Glu max (rat mGlu5; Table 2 compounds with X = NMe): 110%

IC50 (rat mGlu3; [10]): 0.132 µM
mGlu3 Glu max (rat mGlu3; Table 2 compounds with X = O): 1%
EC50 (rat mGlu5; [11]): 0.192 µM
mGlu5 Glu max (rat mGlu5; Table 2 compounds with X = O): 69%
SMILES: O=C1c2cc(COc3cccc(F)c3)nn2CCN1c1ccc(F)cc1 [drawing 31 X = O, reference compound]

SMILES: CN(Cc1cc2n(n1)CCN(c1ccc(F)cc1)C2=O)c1ccc(F)cc1 [drawing 32 X = NMe]
IC50 (rat mGlu3; [8]): 0.467 µM
mGlu3 Glu max (rat mGlu3; Table 2 compounds with X = NMe): 1%
EC50 (rat mGlu5; [9]): > 30 µM

IC50 (rat mGlu3; [10]): 0.108 µM
mGlu3 Glu max (rat mGlu3; Table 2 compounds with X = O): 1%
EC50 (rat mGlu5; [11]): 0.106 µM
mGlu5 Glu max (rat mGlu5; Table 2 compounds with X = O): 71%
SMILES: O=C1c2cc(COc3ccc(F)cc3)nn2CCN1c1ccc(F)cc1 [drawing 32 X = O, reference compound]
